# Laboratory results reported in patent publication US20110230476A1, “PI3 KINASE INHIBITORS AND USES THEREOF” (AVILA THERAPEUTICS, INC., priority 2009, published 2011).
# Target: T1, PI3Kα (p110α/p85α) (Homo sapiens, UniProt P42336)
# T1 construct: purchased BPS Bioscience (San Diego, Calif.) or Millipore (Billerica, Mass.)
# Assay: HTRF assay, potency against active PI3Kα
# Type: biochemical
# Details: HTRF; [ATP]=50 μM, [di-C8-PIP2]=10 μM; 30 min pre-incubation; read-out: PI3Kα Inhibition
# Outline: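 Active p110/p85α lipid kinase reactions were started with ATP and run 30-60 minutes at 25 °C, then stopped and developed with HTRF detection mix. HTRF ratio converted to % inhibition against ±enzyme controls; IC50 from log[inhibitor] vs response, variable slope.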
# T1 sequence (P42336 whole entry): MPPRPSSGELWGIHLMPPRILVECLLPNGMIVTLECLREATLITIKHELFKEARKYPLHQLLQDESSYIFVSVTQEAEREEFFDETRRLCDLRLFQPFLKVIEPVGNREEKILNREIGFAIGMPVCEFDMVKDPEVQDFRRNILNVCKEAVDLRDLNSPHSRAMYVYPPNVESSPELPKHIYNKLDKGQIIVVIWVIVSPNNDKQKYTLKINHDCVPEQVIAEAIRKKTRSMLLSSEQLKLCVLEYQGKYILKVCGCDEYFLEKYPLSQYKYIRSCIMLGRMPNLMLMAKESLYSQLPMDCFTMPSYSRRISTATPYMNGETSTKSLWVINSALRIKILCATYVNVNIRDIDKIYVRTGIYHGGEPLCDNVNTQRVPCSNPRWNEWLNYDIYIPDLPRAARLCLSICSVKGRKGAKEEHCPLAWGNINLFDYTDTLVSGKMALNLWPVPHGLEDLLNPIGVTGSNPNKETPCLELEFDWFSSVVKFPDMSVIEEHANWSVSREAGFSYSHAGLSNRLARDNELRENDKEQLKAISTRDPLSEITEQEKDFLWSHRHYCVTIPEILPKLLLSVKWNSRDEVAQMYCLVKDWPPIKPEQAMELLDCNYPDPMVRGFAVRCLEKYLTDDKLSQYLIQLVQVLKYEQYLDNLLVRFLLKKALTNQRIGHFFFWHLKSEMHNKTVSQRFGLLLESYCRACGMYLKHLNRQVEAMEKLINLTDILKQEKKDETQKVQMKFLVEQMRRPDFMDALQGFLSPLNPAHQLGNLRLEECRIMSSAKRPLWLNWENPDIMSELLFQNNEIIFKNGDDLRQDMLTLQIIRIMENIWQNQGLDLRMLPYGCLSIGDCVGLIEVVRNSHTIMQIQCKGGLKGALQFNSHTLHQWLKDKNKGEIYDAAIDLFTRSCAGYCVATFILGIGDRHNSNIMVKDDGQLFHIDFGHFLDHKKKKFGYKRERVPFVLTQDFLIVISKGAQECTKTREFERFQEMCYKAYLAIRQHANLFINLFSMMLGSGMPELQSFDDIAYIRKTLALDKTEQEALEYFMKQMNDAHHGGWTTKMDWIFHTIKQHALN
# T1 sequence (P27986 whole entry partner): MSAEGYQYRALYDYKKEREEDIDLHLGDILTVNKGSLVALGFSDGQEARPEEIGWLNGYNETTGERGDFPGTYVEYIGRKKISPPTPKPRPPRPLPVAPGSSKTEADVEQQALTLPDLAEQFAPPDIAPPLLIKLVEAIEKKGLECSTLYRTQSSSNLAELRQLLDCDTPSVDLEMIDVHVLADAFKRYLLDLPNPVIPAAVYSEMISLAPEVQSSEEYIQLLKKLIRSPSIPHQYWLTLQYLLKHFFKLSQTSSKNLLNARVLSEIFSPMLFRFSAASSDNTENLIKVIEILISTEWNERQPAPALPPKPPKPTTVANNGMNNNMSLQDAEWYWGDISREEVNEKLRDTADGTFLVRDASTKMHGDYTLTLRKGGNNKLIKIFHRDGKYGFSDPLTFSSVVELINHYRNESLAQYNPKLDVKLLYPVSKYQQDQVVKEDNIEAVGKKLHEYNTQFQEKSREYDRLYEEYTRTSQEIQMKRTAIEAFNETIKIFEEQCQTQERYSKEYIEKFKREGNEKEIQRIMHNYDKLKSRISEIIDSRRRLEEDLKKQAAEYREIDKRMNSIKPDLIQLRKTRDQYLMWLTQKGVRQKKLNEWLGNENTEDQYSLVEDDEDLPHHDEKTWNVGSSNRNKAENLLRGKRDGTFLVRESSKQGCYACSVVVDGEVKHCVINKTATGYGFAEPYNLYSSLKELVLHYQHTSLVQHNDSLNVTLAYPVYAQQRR
row,SMILES,IC50
1,"C/C=C/C(=O)CCCC(=O)Nc1ccc2c(c1)N(c1nc3c(s1)C(=O)NC(C)(C)C3)CCO2 [VI-24, (E)-N-(4-(6,6-dimethyl-4-oxo-4,5,6,7-tetrahydrothiazolo[5,4-c]pyridin-2-yl)-3,4-dihydro-2H-benzo[b][1,4]oxazin-6-yl)-5-oxooct-6-enamide]",> 1000 nM
2,C/C=C/C(=O)CCCC(=O)NCC(=O)Nc1ccc2c(c1)N(c1nc3c(s1)C(=O)NC(C)(C)C3)CCO2 [VI-25],> 1000 nM
3,"C=CC(=O)Nc1ccc(CN2CCC(n3ncc4c(N5CCOCC5)nc(-c5ccc(NC(=O)NC)cc5)nc43)CC2)cc1 [VII-5, N-(4-((4-(6-(4-(3-methylureido)phenyl)-4-morpholino-1H-pyrazolo[3,4-d]pyrimidin-1-yl)piperidin-1-yl)methyl)phenyl)acrylamide]",100 to 1000 nM
4,"C/C=C/C(=O)CCC(=O)N1CCC(n2nc(-c3ccc(OC)c(OC)c3)c3c(N)ncnc32)CC1 [XI-1, (E)-1-(4-(4-amino-3-(3,4-dimethoxyphenyl)-1H-pyrazolo[3,4-d]pyrimidin-1-yl)piperidin-1-yl)hept-5-ene-1,4-dione]",> 1000 nM
5,"C=CC(=O)N(C)CC(=O)N1CCC(n2nc(-c3ccc(OC)c(OC)c3)c3c(N)ncnc32)CC1 [XI-2, N-(2-(4-(4-amino-3-(3,4-dimethoxyphenyl)-1H-pyrazolo[3,4-d]pyrimidin-1-yl)piperidin-1-yl)-2-oxoethyl)-N-methylacrylamide]",> 1000 nM
6,"C=CC(=O)NCCC(=O)N1CCC[C@@H](n2nc(-c3cc4cc(O)ccc4[nH]3)c3c(N)ncnc32)C1 [XI-4, (R)—N-(3-(3-(4-amino-3-(5-hydroxy-1H-indol-2-yl)-1H-pyrazolo[3,4-d]pyrimidin-1-yl)piperidin-1-yl)-3-oxopropyl)acrylamide]",> 1000 nM
7,COc1ccc(-c2nn(C3CCN(C(=O)CCCC(=O)/C=C/c4ccccc4)CC3)c3ncnc(N)c23)cc1OC [XI-5],> 1000 nM
8,"C=CC(=O)Nc1ccc(C(=O)N2CCC(n3nc(-c4ccc(OC)c(OC)c4)c4c(N)ncnc43)CC2)cc1 [XI-6, N-(4-(4-(4-amino-3-(3,4-dimethoxyphenyl)-1H-pyrazolo[3,4-d]pyrimidin-1-yl)piperidine-1-carbonyl)phenyl)acrylamide]",> 1000 nM
9,"C=CC(=O)N(C)CC(=O)N1CCC(n2nc(-c3cc4cc(O)ccc4[nH]3)c3c(N)ncnc32)CC1 [XI-8, N-(2-(4-(4-amino-3-(5-hydroxy-1H-indol-2-yl)-1H-pyrazolo[3,4-d]pyrimidin-1-yl)piperidin-1-yl)-2-oxoethyl)-N-methylacrylamide]",> 1000 nM
10,"CC(C)=CC(=O)CCC(=O)N1CCN(Cc2cc(-c3cnc(N)nc3)nc(N3CCOCC3)c2)CC1 [XII-1, 1-(4-((2-(2-aminopyrimidin-5-yl)-6-morpholinopyridin-4-yl)methyl)piperazin-1-yl)-6-methylhept-5-ene-1,4-dione]",100 to 1000 nM
11,"CC(C)=CC(=O)CCCC(=O)N1CC=C(c2cc(-c3cnc(N)nc3)nc(N3CCOCC3)c2)CC1 [XII-3, 1-(4-(2-(2-aminopyrimidin-5-yl)-6-morpholinopyridin-4-yl)-5,6-dihydropyridin-1(2H)-yl)-7-methyloct-6-ene-1,5-dione]",10 to 100 nM
12,"CC(C)=CC(=O)CCCCC#Cc1cc(-c2cnc(N)nc2)nc(N2CCOCC2)c1 [XII-6, 10-(2-(2-aminopyrimidin-5-yl)-6-morpholinopyridin-4-yl)-2-methyldec-2-en-9-yn-4-one]",100 to 1000 nM
13,"CC(C)=CC(=O)CCCCC#Cc1cc(-c2cccc3[nH]ncc23)nc(N2CCOCC2)c1 [XII-7, 10-(2-(1H-indazol-4-yl)-6-morpholinopyridin-4-yl)-2-methyldec-2-en-9-yn-4-one]",> 1000 nM
14,"CC(C)=CC(=O)CCCCC#Cc1cc(-c2cnc(N)cc2C(F)(F)F)nc(N2CCOCC2)c1 [XII-8, 10-(6′-amino-6-morpholino-4′-(trifluoromethyl)-2,3′-bipyridin-4-yl)-2-methyldec-2-en-9-yn-4-one]",> 1000 nM
15,"CC(C)=CC(=O)c1ccc(CCNC(=O)c2cc(-c3cnc(N)cc3C(F)(F)F)nc(N3CCOCC3)c2)cc1 [XII-9, 6′-amino-N-(4-(3-methylbut-2-enoyl)phenethyl)-6-morpholino-4′-(trifluoromethyl)-2,3′-bipyridine-4-carboxamide]",> 1000 nM
16,"CC(C)=CC(=O)c1ccc(CCNC(=O)c2cc(-c3cnc(N)nc3)nc(N3CCOCC3)c2)cc1 [XII-10, 2-(2-aminopyrimidin-5-yl)-N-(4-(3-methylbut-2-enoyl)phenethyl)-6-morpholinoisonicotinamide]",100 to 1000 nM
17,"C=CC(=O)Nc1ccc(CCNC(=O)c2cc(-c3cnc(N)cc3C(F)(F)F)nc(N3CCOCC3)c2)cc1 [XII-11, N-(4-acrylamidophenethyl)-6′-amino-6-morpholino-4′-(trifluoromethyl)-2,3′-bipyridine-4-carboxamide]",> 1000 nM
18,CC(C)=CC(=O)c1ccc(CCNC(=O)c2cc(-c3cccc4[nH]ncc34)nc(N3CCOCC3)c2)cc1 [XII-12],> 1000 nM

row,SMILES,IC50
1,"C=CC(=O)Nc1ccc(CCNC(=O)c2cc(-c3cccc4[nH]ncc34)nc(N3CCOCC3)c2)cc1 [XII-13, N-(4-acrylamidophenethyl)-2-(1H-indazol-4-yl)-6-morpholinoisonicotinamide]",> 1000 nM
2,"C=CC(=O)Nc1ccc(CNC(=O)c2cc(-c3cccc4[nH]ncc34)nc(N3CCOCC3)c2)cc1 [XII-14, N-(4-acrylamidobenzyl)-2-(1H-indazol-4-yl)-6-morpholinoisonicotinamide]",> 1000 nM
3,"C=CC(=O)Nc1ccc(CCNC(=O)c2cc(-c3cnc(N)nc3C)nc(N3CCOCC3)c2)cc1 [XII-16, N-(4-acrylamidophenethyl)-2-(2-amino-4-methylpyrimidin-5-yl)-6-morpholinoisonicotinamide]",100 to 1000 nM
4,"C=CC(=O)Nc1ccc(CNC(=O)c2cc(-c3cnc(N)nc3C)nc(N3CCOCC3)c2)cc1 [XII-17, N-(4-acrylamidobenzyl)-2-(2-amino-4-methylpyrimidin-5-yl)-6-morpholinoisonicotinamide]",> 1000 nM
5,"CC(C)=CC(=O)CCc1ccc(C#Cc2cc(-c3cccc4[nH]ncc34)nc(N3CCOCC3)c2)cc1 [XII-19, 1-(4-((2-(1H-indazol-4-yl)-6-morpholinopyridin-4-yl)ethynyl)phenyl)-5-methylhex-4-en-3-one]",> 1000 nM
6,"CC(C)=CC(=O)CCCC(=O)NCC#Cc1cc(-c2cnc(N)nc2)nc(N2CCOCC2)c1 [XII-20, N-(3-(2-(2-aminopyrimidin-5-yl)-6-morpholinopyridin-4-yl)prop-2-ynyl)-7-methyl-5-oxooct-6-enamide]",100 to 1000 nM
7,"CC(C)=CC(=O)CCc1ccc(C#Cc2cc(-c3cnc(N)nc3)nc(N3CCOCC3)c2)cc1 [XII-21, 1-(4-((2-(2-aminopyrimidin-5-yl)-6-morpholinopyridin-4-yl)ethynyl)phenyl)-5-methylhex-4-en-3-one]",> 1000 nM
8,"CC(C)=CC(=O)C(=O)Nc1ccc(C#Cc2cc(-c3cnc(N)nc3)nc(N3CCOCC3)c2)cc1 [XII-22, N-(4-((2-(2-aminopyrimidin-5-yl)-6-morpholinopyridin-4-yl)ethynyl)phenyl)-4-methyl-2-oxopent-3-enamide]",< 10 nM
9,"CC(C)=CC(=O)CCCC(=O)N1CCN(Cc2cc(-c3cnc(N)nc3)nc(N3CCOCC3)c2)CC1 [XII-23, 1-(4-((2-(2-aminopyrimidin-5-yl)-6-morpholinopyridin-4-yl)methyl)piperazin-1-yl)-7-methyloct-6-ene-1,5-dione]",100 to 1000 nM
10,"CC(C)=CC(=O)C(=O)N1CCN(c2ccc(-c3cc(-c4cnc(N)nc4)nc(N4CCOCC4)c3)cc2)CC1 [XII-24, 1-(4-(4-(2-(2-aminopyrimidin-5-yl)-6-morpholinopyridin-4-yl)phenyl)piperazin-1-yl)-4-methylpent-3-ene-1,2-dione]",10 to 100 nM
11,"CC(C)=CC(=O)C(=O)N1CCN(c2ccc(-c3cc(-c4cnc(N)nc4)nc(N4CCOCC4)c3)cn2)CC1 [XII-25, 1-(4-(2′-(2-aminopyrimidin-5-yl)-6′-morpholino-3,4′-bipyridin-6-yl)piperazin-1-yl)-4-methylpent-3-ene-1,2-dione]",10 to 100 nM
12,"CC(C)=CC(=O)C(=O)N1CCN(c2cc(C)c(-c3cc(-c4cnc(N)nc4)nc(N4CCOCC4)c3)cn2)CC1 [XII-26, 1-(4-(2′-(2-aminopyrimidin-5-yl)-4-methyl-6′-morpholino-3,4′-bipyridin-6-yl)piperazin-1-yl)-4-methylpent-3-ene-1,2-dione]",10 to 100 nM
13,"CC(C)=CC(=O)CN1CCN(c2ccc(-c3cc(-c4cnc(N)nc4)nc(N4CCOCC4)c3)cn2)CC1 [XII-27, 1-(4-(2′-(2-aminopyrimidin-5-yl)-6′-morpholino-3,4′-bipyridin-6-yl)piperazin-1-yl)-4-methylpent-3-en-2-one]",10 to 100 nM
14,"C=CC(=O)N1CCN(c2ccc(-c3cc(-c4cnc(N)nc4)nc(N4CCOCC4)c3)cn2)CC1 [XII-28, 1-(4-(2′-(2-aminopyrimidin-5-yl)-6′-morpholino-3,4′-bipyridin-6-yl)piperazin-1-yl)prop-2-en-1-one]",100 to 1000 nM
15,"CC(C)CC(=O)C(=O)N1CCN(c2ccc(-c3cc(-c4cnc(N)nc4)nc(N4CCOCC4)c3)cn2)CC1 [XII-29, 1-(4-(2′-(2-aminopyrimidin-5-yl)-6′-morpholino-3,4′-bipyridin-6-yl)piperazin-1-yl)-4-methylpentane-1,2-dione]",100 to 1000 nM
16,"CC(C)=CC(=O)CCCC(=O)N1CCN(c2cc(-c3cnc(N)nc3)nc(N3CCOCC3)c2)CC1 [XII-30, 1-(4-(2-(2-aminopyrimidin-5-yl)-6-morpholinopyridin-4-yl)piperazin-1-yl)-7-methyloct-6-ene-1,5-dione]",100 to 1000 nM
17,"CC(C)=CC(=O)CCC(=O)N1CCC(C#Cc2cc(-c3cnc(N)nc3)nc(N3CCOCC3)c2)CC1 [XII-31, 1-(4-((2-(2-aminopyrimidin-5-yl)-6-morpholinopyridin-4-yl)ethynyl)piperidin-1-yl)-6-methylhept-5-ene-1,4-dione]",100 to 1000 nM
